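1) Cells in 96-well plates. 2) Compound, 48 h, 5 concentrations. 3) Linear interpolation between surrounding doses. 4) Unreached endpoint = highest concentration. TGI denotes the concentration required for complete inhibition of growth.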
Legend:
Test in all cases: inhibition of tumour cell growth, NCI panel, 48 h
SN12C renal = system: SN12C renal
DMS 273 small cell lung = system: DMS 273 small cell lung
XF 498 CNS = system: XF 498 CNS
SW-620 colon = system: SW-620 colon
HCT-15 colon = system: HCT-15 colon
HCC-2998 colon = system: HCC-2998 colon
DMS 114 small cell lung = system: DMS 114 small cell lung
KM12 colon = system: KM12 colon
HCT-116 colon = system: HCT-116 colon
SK-MEL-5 melanoma = system: SK-MEL-5 melanoma
K-562 leukemia = system: K-562 leukemia
IGROV1 ovarian = system: IGROV1 ovarian
OVCAR-3 ovarian = system: OVCAR-3 ovarian
MALME-3M melanoma = system: MALME-3M melanoma
COLO 205 colon = system: COLO 205 colon
TK-10 renal = system: TK-10 renal
NCI-H460 lung = system: NCI-H460 lung
UACC-257 melanoma = system: UACC-257 melanoma
ACHN renal = system: ACHN renal
SNB-75 CNS = system: SNB-75 CNS
LXFL 529 NSCLC = system: LXFL 529 NSCLC
HL-60(TB) leukemia = system: HL-60(TB) leukemia
NCI-H23 lung = system: NCI-H23 lung
RXF-631 renal = system: RXF-631 renal
DLD-1 colon = system: DLD-1 colon
U251 CNS = system: U251 CNS
SR leukemia = system: SR leukemia
SK-OV-3 ovarian = system: SK-OV-3 ovarian
A498 renal = system: A498 renal
HOP-62 NSCLC = system: HOP-62 NSCLC
OVCAR-4 ovarian = system: OVCAR-4 ovarian
RXF 393 renal = system: RXF 393 renal
SF-539 CNS = system: SF-539 CNS
SK-MEL-28 melanoma = system: SK-MEL-28 melanoma
A549 NSCLC = system: A549 NSCLC
SNB-78 CNS = system: SNB-78 CNS
LOX IMVI melanoma = system: LOX IMVI melanoma
SF-268 CNS = system: SF-268 CNS
HOP-92 NSCLC = system: HOP-92 NSCLC
786-0 renal = system: 786-0 renal
RPMI-8226 leukemia = system: RPMI-8226 leukemia
CCRF-CEM leukemia = system: CCRF-CEM leukemia
M19-MEL melanoma = system: M19-MEL melanoma
EKVX NSCLC = system: EKVX NSCLC
SK-MEL-2 melanoma = system: SK-MEL-2 melanoma
HT29 colon = system: HT29 colon
UACC-62 melanoma = system: UACC-62 melanoma
M14 melanoma = system: M14 melanoma
OVCAR-8 ovarian = system: OVCAR-8 ovarian
SF-295 CNS = system: SF-295 CNS
MOLT-4 leukemia = system: MOLT-4 leukemia
NCI-H226 lung = system: NCI-H226 lung
UO-31 renal = system: UO-31 renal
CAKI-1 renal = system: CAKI-1 renal
OVCAR-5 ovarian = system: OVCAR-5 ovarian
KM20L2 colon = system: KM20L2 colon
NCI-H522 lung = system: NCI-H522 lung
SNB-19 CNS = system: SNB-19 CNS

Measured: TGI

Nc1ccc(C(c2ccccc2)(c2ccccc2)c2ccccc2)cc1
88.4 µM: NCI-H23 lung
56.1 µM: SK-MEL-28 melanoma
56 µM: RXF 393 renal
41.1 µM: XF 498 CNS
75.8 µM: HOP-62 NSCLC
62.1 µM: U251 CNS
35.7 µM: SK-OV-3 ovarian
34.4 µM: SF-295 CNS
41.3 µM: UACC-62 melanoma
30.1 µM: M14 melanoma
95.3 µM: TK-10 renal
77 µM: SNB-78 CNS
91.6 µM: HL-60(TB) leukemia
53.9 µM: SNB-75 CNS
> 100 µM: SN12C renal | DMS 273 small cell lung | SW-620 colon | HCT-15 colon | HCC-2998 colon | DMS 114 small cell lung | KM12 colon | HCT-116 colon | SK-MEL-5 melanoma | K-562 leukemia | IGROV1 ovarian | OVCAR-3 ovarian | MALME-3M melanoma | COLO 205 colon | NCI-H460 lung | UACC-257 melanoma | ACHN renal | LXFL 529 NSCLC | RXF-631 renal | DLD-1 colon | SR leukemia | A498 renal | OVCAR-4 ovarian | SF-539 CNS | A549 NSCLC | LOX IMVI melanoma | SF-268 CNS | 786-0 renal | RPMI-8226 leukemia | CCRF-CEM leukemia | M19-MEL melanoma | EKVX NSCLC | SK-MEL-2 melanoma | HT29 colon | OVCAR-8 ovarian | MOLT-4 leukemia
31.1 µM: HOP-92 NSCLC

CCc1cccc(C)c1NC(=O)C1=C(C)NC(C)=C(C(=O)Nc2c(C)cccc2CC)C1c1ccc([N+](=O)[O-])cc1
66.9 µM: XF 498 CNS
30.1 µM: HOP-92 NSCLC
57.3 µM: RPMI-8226 leukemia
49.5 µM: HL-60(TB) leukemia
> 100 µM: SN12C renal | DMS 273 small cell lung | SW-620 colon | HCC-2998 colon | KM12 colon | SK-MEL-5 melanoma | K-562 leukemia | IGROV1 ovarian | OVCAR-3 ovarian | NCI-H226 lung | MALME-3M melanoma | COLO 205 colon | TK-10 renal | NCI-H460 lung | UACC-257 melanoma | ACHN renal | SNB-75 CNS | LXFL 529 NSCLC | NCI-H23 lung | RXF-631 renal | DLD-1 colon | U251 CNS | UO-31 renal | SK-OV-3 ovarian | A498 renal | HOP-62 NSCLC | OVCAR-4 ovarian | RXF 393 renal | SF-539 CNS | SK-MEL-28 melanoma | A549 NSCLC | SNB-78 CNS | OVCAR-5 ovarian | LOX IMVI melanoma | SF-268 CNS | KM20L2 colon | 786-0 renal | CCRF-CEM leukemia | M19-MEL melanoma | EKVX NSCLC | SK-MEL-2 melanoma | HT29 colon | SNB-19 CNS | M14 melanoma | OVCAR-8 ovarian | SF-295 CNS
46.6 µM: MOLT-4 leukemia
68.3 µM: NCI-H522 lung
89.6 µM: CAKI-1 renal

Reference: PubChem BioAssay (NCI)
